Laboratory results from PubChem BioAssay (NCI).
Several values for one entry are separate records, joined by “and”; a condition that tells them apart may be missing. Equal entries are not always repeated.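 Assay format: 96-well plates, 48-hour exposure. Here, GI50 denotes the concentration required for 50% inhibition of growth. Definition used: TGI = concentration required for complete inhibition of growth.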

Tests used:
Experiment in all cases: inhibition of tumour cell growth, NCI panel, 48 h
OVCAR-4 ovarian = tested on: OVCAR-4 ovarian
COLO 205 colon = tested on: COLO 205 colon
HCT-116 colon = tested on: HCT-116 colon
HOP-62 NSCLC = tested on: HOP-62 NSCLC
TK-10 renal = tested on: TK-10 renal
HCT-15 colon = tested on: HCT-15 colon
SN12C renal = tested on: SN12C renal
MCF7 breast = tested on: MCF7 breast
DU-145 prostate = tested on: DU-145 prostate
HS 578T breast = tested on: HS 578T breast

Compound | TGI (OVCAR-4 ovarian) | TGI (COLO 205 colon) | TGI (HCT-116 colon) | TGI (HOP-62 NSCLC) | TGI (TK-10 renal) | TGI (HCT-15 colon) | TGI (SN12C renal) | GI50 (COLO 205 colon) | GI50 (MCF7 breast) | TGI (MCF7 breast) | GI50 (HCT-116 colon) | GI50 (HOP-62 NSCLC) | GI50 (TK-10 renal) | GI50 (HCT-15 colon) | GI50 (SN12C renal) | GI50 (DU-145 prostate) | TGI (DU-145 prostate) | GI50 (HS 578T breast) | TGI (HS 578T breast) | GI50 (OVCAR-4 ovarian)
COC(=O)C1C=CCC2CCCCC21N1CCCC1 (configuration not stated) | > 100 µM | > 100 µM | > 100 µM | > 100 µM | > 100 µM | > 100 µM | > 100 µM |  |  |  |  |  |  |  |  |  |  |  |  | 
N/N=C(/Cc1ccccc1)NNO | > 100 µM | > 100 µM | > 100 µM |  | > 100 µM | > 100 µM |  |  |  |  |  |  |  |  |  |  |  |  |  | 
Cc1ccc(C2=CC(=O)c3ccccc3C2=O)n1-c1ccccc1 | 96.6 µM | > 100 µM | > 100 µM | > 100 µM | > 100 µM |  | > 100 µM |  |  |  |  |  |  |  |  |  |  |  |  | 
COc1cc2c(cc1C)NC(=O)/C2=C/c1ccnc2ccccc12 |  | > 50 µM | > 50 µM | > 50 µM | > 50 µM | > 50 µM | > 50 µM | 38.9 µM | 8.72 µM | > 50 µM | 24.4 µM | > 50 µM | 35.8 µM | 20.5 µM | 12.6 µM | 29.1 µM | > 50 µM | 40.1 µM | > 50 µM | 
COc1cc2c(/C=C3\C(=O)Nc4ccccc43)c[nH]c2cc1C |  | 4.39 µM | 1.22 µM | 10.7 µM | 9.95 µM | 2.93 µM | 1.39 µM | 0.118 µM |  | > 82.1 µM | < 0.01 µM | < 0.01 µM | 1.31 µM | 0.725 µM | 0.275 µM | 0.0242 µM | 12.3 µM | < 0.0229 µM | 32.1 µM | 
CN(C)C(=S)/N=c1\ss/c(=N\C(=S)N(C)C)n1-c1cccc(Cl)c1 | > 100 µM | > 100 µM | > 100 µM | > 100 µM | > 100 µM | > 100 µM | > 100 µM |  |  |  |  |  |  |  |  |  |  |  |  | 
COC(=O)C(C(=O)C(=O)Nc1c(C)cccc1C(C)(C)C)c1nc2ccc(Cl)cc2[nH]c1=O (configuration not stated) | > 100 µM |  | > 100 µM | > 100 µM | > 100 µM | > 100 µM | > 100 µM |  |  | > 100 µM |  |  |  |  |  |  |  |  | > 100 µM | 
C1=CC(=P(c2ccccc2)(c2ccccc2)c2ccccc2)C=C1 | 31.5 µM | 14.8 µM |  | 41.6 µM | 50.9 µM | > 100 µM | 43.4 µM |  |  |  |  |  |  |  |  |  |  |  |  | 
OCc1ccc(N(Cc2ccc(F)cc2)Cc2ccc(F)cc2)cc1Cl | 14.7 µM | 24.4 µM | 10.8 µM | 23.2 µM | 11.2 µM | 24.2 µM | 26 µM | 11.7 µM | 3.72 µM | 17 µM | 2.87 µM | 10.9 µM | 2.08 µM | 9.88 µM | 11.5 µM |  |  | 16.2 µM | 45.5 µM | 3.01 µM
O=C1NC(=NCCc2ccc(Cl)cc2)S/C1=C\c1ccc2ncccc2c1 | > 25 µM | > 25 µM | > 25 µM | > 25 µM |  | > 25 µM | > 25 µM | 15.3 µM | 10.2 µM | > 25 µM | 9.14 µM | 14.3 µM |  | 12.9 µM | > 25 µM | 24.4 µM | > 25 µM | 9.77 µM | > 25 µM | 8.94 µM
CCOc1c(Br)cc(Br)cc1C=C(C#N)C#N | > 10 µM | > 10 µM | > 10 µM | > 10 µM | > 10 µM | > 10 µM | > 10 µM |  |  | > 10 µM |  |  |  |  |  |  |  |  | > 10 µM | 
COc1ccc2[nH]c(C(=O)N3CCN(C(=O)OCc4ccc5c(Cl)cc(Cl)c(O)c5n4)CC3)cc2c1 | 3.07 µM | 2.48 µM | 1.35 µM | 3.36 µM | 2.72 µM | 1.59 µM | 2.56 µM | 0.85 µM |  |  | 0.295 µM | 1.56 µM | 1.42 µM | 0.368 µM | 1.27 µM | 1.19 µM | 2.53 µM | 1.87 µM | 6.07 µM | 1.53 µM
OCC(O)C(O)C(O)C(/C=N\Nc1ncnc2c(Br)cc(Br)cc12)=N/Nc1ncnc2c(Br)cc(Br)cc12 (configuration not stated) |  | 13 µM and 22 µM | > 100 µM |  | 28.1 µM and > 100 µM |  | 18.8 µM and > 100 µM |  |  | 37.4 µM and > 100 µM | 19.1 µM and 3.44 µM | 2.05 µM and 9.09 µM |  |  | 5.09 µM and 24.8 µM |  | 14.7 µM and > 100 µM |  | > 100 µM | 
O=C1CC23CCCCCCCCCCC2(C1)CC(=O)C3 (configuration not stated) |  | 33.5 µM |  |  | > 100 µM | > 100 µM | 38.6 µM |  |  |  |  |  |  |  |  |  |  |  |  | 
O=C(Nc1sc2c(c1C(=O)O)CCCC2)c1ccco1 |  | > 50 µM | > 50 µM | > 50 µM | > 50 µM | > 50 µM | 42 µM | 44.2 µM | 26.5 µM | > 50 µM | 31 µM | > 50 µM | > 50 µM | 30.6 µM | 8.63 µM | > 50 µM | > 50 µM | > 50 µM | > 50 µM | 
O=C(Nc1ccc(Cl)cc1C(F)(F)F)C(=O)Nn1c(=S)[nH]c2ccccc2c1=O | > 100 µM |  | > 100 µM | > 100 µM | > 100 µM | > 100 µM | > 100 µM |  |  | > 100 µM |  |  |  |  |  |  |  |  | > 100 µM | 
CC(C)(C)C#COC(=O)c1ccccc1 | > 100 µM | > 100 µM | > 100 µM | > 100 µM |  | > 100 µM | > 100 µM |  |  |  |  |  |  |  |  |  |  |  |  | 

Compound | TGI (OVCAR-4 ovarian) | TGI (COLO 205 colon) | TGI (HCT-116 colon) | TGI (HOP-62 NSCLC) | TGI (TK-10 renal) | TGI (HCT-15 colon) | TGI (SN12C renal) | GI50 (COLO 205 colon) | GI50 (MCF7 breast) | TGI (MCF7 breast) | GI50 (HCT-116 colon) | GI50 (HOP-62 NSCLC) | GI50 (TK-10 renal) | GI50 (HCT-15 colon) | GI50 (SN12C renal) | GI50 (DU-145 prostate) | TGI (DU-145 prostate) | GI50 (HS 578T breast) | TGI (HS 578T breast) | GI50 (OVCAR-4 ovarian)
O=C(c1ccccc1)C1N=NN(Cc2ccccc2[N+](=O)[O-])C1C(=O)c1ccccc1 (configuration not stated) | > 100 µM | > 100 µM | > 100 µM | > 100 µM | > 100 µM | > 100 µM |  |  |  |  |  |  |  |  |  |  |  |  |  | 
O=c1c(Cc2ccccc2)c(O)cc2n1CCC2 | > 100 µM | > 100 µM | > 100 µM | > 100 µM | > 100 µM | > 100 µM | > 100 µM |  |  |  |  |  |  |  |  |  |  |  |  | 
Cc1cccc(C)c1NC(=O)C(=O)Cc1nc2ccccc2s1 | > 100 µM | > 100 µM | > 100 µM | > 100 µM | > 100 µM | > 100 µM | > 100 µM |  |  |  |  |  |  |  |  |  |  |  |  | 
CCC[CH2][Sn-]([CH2]CCC)([CH2]CCC)[O]C(=O)C(C)C | 0.196 µM | 0.274 µM | 0.182 µM | 0.297 µM | 0.272 µM | 0.249 µM | 0.318 µM | 0.13 µM |  |  | 0.0553 µM | 0.157 µM | 0.141 µM | 0.117 µM | 0.158 µM | 0.124 µM | 0.252 µM | 0.354 µM | 1.92 µM | 0.0538 µM
COC(=O)C1CC(c2ccc(OC)c(OC)c2)OC1=O (mixture of isomers) | > 100 µM | > 100 µM | > 100 µM | > 100 µM | > 100 µM | > 100 µM | > 100 µM |  |  |  |  |  |  |  |  |  |  |  |  | 
Cc1nnc2n1N=C(c1ccccc1)C(c1ccccc1)S2 (configuration not stated) | > 100 µM | 41.8 µM | > 100 µM | > 100 µM | > 100 µM | > 100 µM | > 100 µM |  |  |  |  |  |  |  |  |  |  |  |  | 
c1ccc2c(c1)[nH]c1c2nc2ccccn21 | > 100 µM | > 100 µM | > 100 µM | > 100 µM | > 100 µM | > 100 µM | > 100 µM |  |  |  |  |  |  |  |  |  |  |  |  | 
COc1ccc(-c2ccc(CC(=O)O)cc2)cc1OC | > 100 µM | > 100 µM | > 100 µM | > 100 µM | > 100 µM |  | > 100 µM |  |  |  |  |  |  |  |  |  |  |  |  | 
Cn1c(=O)oc2cc(C3CCC(=O)N3Cc3csc(-c4ccccc4)n3)ccc21 (configuration not stated) | > 100 µM | > 100 µM | > 100 µM | > 100 µM | > 100 µM | > 100 µM | > 100 µM |  |  |  |  |  |  |  |  |  |  |  |  | 
c1cnc2c(c1)-n1cccc1C1(CCCCC1)NN2 | > 100 µM | > 100 µM | > 100 µM | > 100 µM | > 100 µM | > 100 µM | > 100 µM |  |  |  |  |  |  |  |  |  |  |  |  | 
Cc1cc2c(c(C(=O)O)c1C)-c1cccc(Cl)c1C2=O | > 100 µM | > 100 µM |  | > 100 µM | > 100 µM | > 100 µM | > 100 µM |  |  |  |  |  |  |  |  |  |  |  |  | 
CN1CCCC2[C@@H]3CCC4c5nonc5CC[C@]4(C)C3CC[C@@]21C (some centres not stated) | > 100 µM | > 100 µM | > 100 µM |  | > 100 µM | > 100 µM | > 100 µM |  |  |  |  |  |  |  |  |  |  |  |  | 
O=C1c2ccccc2-c2nc3ccncc3n21 | > 100 µM | > 100 µM | > 100 µM | > 100 µM | > 100 µM | > 100 µM | > 100 µM |  |  | > 100 µM |  |  |  |  |  |  | > 100 µM |  |  | 
CCN(CC)C(=S)SSC(C)C | 26.2 µM | 20.6 µM |  | 86.7 µM | 38 µM | 65.4 µM | 30.5 µM | 0.0412 µM |  |  |  | 24.7 µM | 20.3 µM | 22 µM | 14.3 µM | 17.1 µM | 35.2 µM | 0.936 µM | 28.3 µM | 13.4 µM
COc1cc(C)c2c(c1)CN1CN2Cc2cc(OC)cc(C)c21 | > 100 µM | > 100 µM | > 100 µM | > 100 µM |  | > 100 µM | > 100 µM |  |  |  |  |  |  |  |  |  |  |  |  | 
Cc1ccccc1NC(=O)CSc1nnc(-c2ccc(N=Cc3ccc(Cl)cc3)cc2)o1 | > 100 µM | > 100 µM | > 100 µM | > 100 µM | > 100 µM | > 100 µM | > 100 µM |  |  |  |  |  |  |  |  |  |  |  |  | 
